# Measurements as given in patent US20100040552A1, “METHODS TO EVALUATE GLUCOCORTICOID RECEPTOR AGONISTS AND ANTAGONISTS FOR EFFECTS ON NEURON-LIKE CELLS” (ROSETTA INPHARMATICS LLC, priority 2005, published 2010).
# Legend:
# [1] = biological target: T1, Glucocorticoid Receptor (Homo sapiens, UniProt P04150); assay: Transactivation assay, A549 cells; assay type: cell-based
# T1 sequence (P04150 1-777): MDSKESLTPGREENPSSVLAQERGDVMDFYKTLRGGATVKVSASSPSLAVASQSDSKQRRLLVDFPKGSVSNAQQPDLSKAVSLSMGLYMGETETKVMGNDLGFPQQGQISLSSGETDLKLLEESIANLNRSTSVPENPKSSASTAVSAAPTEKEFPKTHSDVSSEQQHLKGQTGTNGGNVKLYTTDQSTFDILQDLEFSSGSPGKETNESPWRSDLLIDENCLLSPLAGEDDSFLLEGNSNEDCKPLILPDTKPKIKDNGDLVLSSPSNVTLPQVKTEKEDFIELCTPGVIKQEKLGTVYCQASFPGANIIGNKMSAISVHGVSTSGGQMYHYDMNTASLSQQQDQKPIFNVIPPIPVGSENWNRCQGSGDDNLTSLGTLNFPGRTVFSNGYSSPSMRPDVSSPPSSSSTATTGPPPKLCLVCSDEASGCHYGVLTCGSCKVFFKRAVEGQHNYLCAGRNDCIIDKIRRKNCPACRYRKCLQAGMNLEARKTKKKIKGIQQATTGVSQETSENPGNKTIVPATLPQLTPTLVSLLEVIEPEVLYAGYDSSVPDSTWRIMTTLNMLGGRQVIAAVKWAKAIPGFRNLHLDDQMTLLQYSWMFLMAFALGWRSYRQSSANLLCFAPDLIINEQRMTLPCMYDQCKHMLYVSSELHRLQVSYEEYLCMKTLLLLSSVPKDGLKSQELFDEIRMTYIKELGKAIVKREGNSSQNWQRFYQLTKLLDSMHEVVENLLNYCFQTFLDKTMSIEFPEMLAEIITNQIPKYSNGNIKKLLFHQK
# [2] = test system: RGS2, RGS4 and Sult1a1 gene expression; assay: In vivo RT-PCR of rat caudate and raphe nucleus (Example 1)
# Text: Cross-hatched bars represent RGS2 gene expression. Unhatched bars represent RGS4 gene expression. ** p=0.003. * p=0.001.
# Cross-hatched bars represent Sult1a1 gene expression in the caudate nucleus. Unhatched bars represent Sult1a1 gene expression in the raphe nucleus. *p<0.001.
# [3] = biological target: T1, Glucocorticoid Receptor; assay: Transactivation assay, MDA cells; assay type: cell-based; design: host or cells: MDA cells; conditions: maximal response
# [4] = biological target: T1, Glucocorticoid Receptor; assay: Transrepression assay, COS cells; assay type: cell-based; design: host or cells: COS cells
# [5] = biological target: T2, MR (mineralocorticoid receptor) (Homo sapiens, UniProt P08235); assay: MR binding study
# T2 sequence (P08235 1-984): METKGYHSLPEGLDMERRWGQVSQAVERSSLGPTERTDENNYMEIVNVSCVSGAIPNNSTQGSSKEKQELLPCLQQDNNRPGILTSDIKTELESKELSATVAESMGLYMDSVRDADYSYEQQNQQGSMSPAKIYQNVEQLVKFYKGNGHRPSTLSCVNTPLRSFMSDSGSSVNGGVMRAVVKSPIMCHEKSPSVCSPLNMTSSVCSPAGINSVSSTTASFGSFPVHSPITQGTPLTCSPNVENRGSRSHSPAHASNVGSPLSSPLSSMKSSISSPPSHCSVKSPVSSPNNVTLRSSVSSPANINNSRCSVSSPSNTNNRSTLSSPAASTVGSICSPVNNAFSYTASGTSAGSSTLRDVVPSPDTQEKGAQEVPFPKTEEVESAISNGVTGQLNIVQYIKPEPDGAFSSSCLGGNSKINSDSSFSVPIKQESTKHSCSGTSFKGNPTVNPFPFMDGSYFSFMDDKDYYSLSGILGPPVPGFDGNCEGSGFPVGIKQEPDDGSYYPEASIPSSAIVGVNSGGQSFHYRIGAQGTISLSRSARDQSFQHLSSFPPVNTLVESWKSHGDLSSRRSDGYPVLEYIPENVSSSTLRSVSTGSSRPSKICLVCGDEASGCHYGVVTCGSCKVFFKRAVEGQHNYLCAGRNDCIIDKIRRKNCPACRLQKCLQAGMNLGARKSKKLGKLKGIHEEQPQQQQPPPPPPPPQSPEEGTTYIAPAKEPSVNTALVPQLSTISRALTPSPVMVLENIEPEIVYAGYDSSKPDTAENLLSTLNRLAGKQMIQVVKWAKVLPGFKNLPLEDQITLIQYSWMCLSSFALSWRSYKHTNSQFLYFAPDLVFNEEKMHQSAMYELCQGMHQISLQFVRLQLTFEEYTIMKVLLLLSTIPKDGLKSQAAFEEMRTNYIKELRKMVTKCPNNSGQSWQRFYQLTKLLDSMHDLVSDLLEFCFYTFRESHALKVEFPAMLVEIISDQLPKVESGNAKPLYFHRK
# Text: The following abbreviations are used in Table II: MR, mineralocorticoid receptor; GR, glucocorticoid receptor; and PR, progesterone receptor.
# [6] = test system: A549 cells; assay: A549 cell molecular profiling experiment; assay type: cell-based; conditions: for Up-regulated genes in category DMSO (<0%) / Up-regulated genes in category Full (≧90%) / Up-regulated genes in category High (66.7-90%) / Up-regulated genes in category Low (0-33.3%) / Up-regulated genes in category Middle (33.3-66.7%): set of 1091 genes; for Down-regulated genes in category DMSO (<0%) / Down-regulated genes in category Full (≧90%) / Down-regulated genes in category High (66.7-90%) / Down-regulated genes in category Low (0-33.3%) / Down-regulated genes in category Middle (33.3-66.7%): set of 1249 genes
# [7] = biological target: T1, Glucocorticoid Receptor; assay: Classification of effect on the glucocorticoid receptor; assay type: cell-based; design: host or cells: COS cells; conditions: as assessed by MDA and A549 transactivation and COS transrepression assays
# [8] = test system: CA77 cells; assay: CA77 cell assay, real-time RT-PCR (TaqMan); assay type: cell-based, rat
# Experimental: Assay: CA77 cells were plated into 96 well tissue culture dishes at a density of 8×10^4 cells per well in 200 μl of PM and the cultures maintained in a humidified air atmosphere (7.5% CO2) at 37° C. This media was aspirated after 24 hours and replaced with 200 μl of GM and the cultures incubated as before, for an additional 48 hours, at which time the cultures were at approximately 90% confluency.
# For the evaluation of agonist activity, the GM was aspirated, replaced with 200 μl of fresh GM containing concentrations of a drug ranging from 0.1 nM to 10,000 nM in a 10-fold dilution series. Control wells of 0 nM drug in GM and 0.1% DMSO in GM were included in the series for each drug. Each drug concentration and the two controls were evaluated on 4 wells. The cultures were maintained in a humidified air atmosphere (7.5% CO2) at 37° C. for 24 hours.
# Control wells of 0 nM drug in GM containing 250 nM corticosterone and 0.1% DMSO in GM (without corticosterone) were included in the series for each drug. Each drug concentration and the two controls were evaluated on 4 wells. The cultures were maintained in a humidified air atmosphere (7.5% CO2) at 37° C. for 24 hours.
# Lysis of Cells and Isolation of mRNA: Two methods were employed for the lysis of the cells and the isolation of mRNA at the end of the 24-hour incubation with the drugs.
# One method was the mRNA Catcher™ Method (using Kit number 37001, sold by Invitrogen Corporation). The GM was aspirated from the cells, the cell monolayer was washed once with PBS (product number 10010, sold by Invitrogen Corporation), and then the cells were lysed in 30 μl of the kit lysis buffer containing 1% β-ME for 5 minutes at room temperature. The lysates were snap frozen in the 96-well plate by placing the plate on dry ice pellets, and the plate was then stored at −80° C.
# The lysates were thawed at room temperature and then transferred into individual wells in the mRNA Catcher™ plate. The plate was covered and incubated for 90 minutes at room temperature for RNA hybridization. […]
# [9] = test system: Sult1a1; assay: In vivo Sult1a1 expression assay (Example 2); design: species or system rat; conditions: co-administered with dexamethasone
# Experimental: Methods: […] […] The rats were sacrificed 6 hours after the final dose and the hippocampus, raphe and caudate nucleus were dissected and placed in […]® (Qiagen, Valencia, Calif.) for 24 hours. The tissue was then placed in a fresh tube and stored at -80 C. Total RNA was prepared using Trizol® (InVitrogen, Carlsbad, Calif.) using the manufacturer's standard protocol. The total RNA was DNase treated and cDNA was made using the methods described in Example 1 in connection with CA77 cell cDNA preparation.
# [10] = test system: CA77 cells; assay: CA77 cell microarray profiling; assay type: cell-based, rat
# Experimental: In order to reduce false positives, progesterone, estradiol, and aldosterone served as out-groups for non-specific effects. Samples were collected at both 6 hours and 24 hours after contacting the CA77 cells with a compound.
# [11] = test system: RGS2 and RGS4 mRNA; conditions: cited from earlier work
compound,measurement,setting,value
"C[C@H]1C[C@@H]2[C@H]([C@@H](O)C[C@@]3(C)[C@H]2CC[C@]3(O)C(=O)CO)[C@@]2(C)C=CC(=O)C=C12 [M-Prednisolone, 6α-methylprednisolone]","Transactivation, A549 Emax",[1]; maximal response,124%
same,RGS4 expression in caudate nucleus,[2]; down-regulated,about 50 % of control levels
same,RGS2 expression in caudate nucleus,[2]; upregulated vs vehicle,2 fold
same,"Transactivation, MDA Emax",[3],104%
same,"Transrepression, COS % Emax, 0.3 μM",[4]; 0.3 μM,100%
same,"Transrepression, COS % Emax, 1 uM",[4]; 1 uM,100%
"C[C@]12C=CC(=O)C=C1CC[C@@H]1[C@@H]2[C@@H](O)C[C@@]2(C)[C@H]1CC[C@]2(O)C(=O)CO [Prednisolone, prednisolone]",IC50,[5],0.98 nM
same,Up-regulated genes in category DMSO (<0%),[6]; 100 nM,0
same,Up-regulated genes in category Full (≧90%),[6]; 100 nM,940
same,Up-regulated genes in category High (66.7-90%),[6]; 100 nM,150
same,Up-regulated genes in category Low (0-33.3%),[6]; 100 nM,0
same,Up-regulated genes in category Middle (33.3-66.7%),[6]; 100 nM,1
same,Down-regulated genes in category DMSO (<0%),[6]; 100 nM,0
same,Down-regulated genes in category Full (≧90%),[6]; 100 nM,1140
same,Down-regulated genes in category High (66.7-90%),[6]; 100 nM,109
same,Down-regulated genes in category Low (0-33.3%),[6]; 100 nM,0
same,Down-regulated genes in category Middle (33.3-66.7%),[6]; 100 nM,0
same,Effect on the glucocorticoid receptor (degree of agonist activity),[7],full agonist activity
"CC#C[C@]1(O)CC[C@H]2[C@@H]3CCC4=CC(=O)CCC4=C3[C@@H](c3ccc(N(C)C)cc3)C[C@@]21C [RU-486, mifepristone]",Emax,"[1]; A549, read-out: Transactivation, A549 Emax",90%
same,Up-regulated genes in category DMSO (<0%),[6]; 1 μm,287
same,Up-regulated genes in category Full (≧90%),[6]; 1 μm,38
same,Up-regulated genes in category High (66.7-90%),[6]; 1 μm,63
same,Up-regulated genes in category Low (0-33.3%),[6]; 1 μm,449
same,Up-regulated genes in category Middle (33.3-66.7%),[6]; 1 μm,254
same,Down-regulated genes in category DMSO (<0%),[6]; 1 μm,454
same,Down-regulated genes in category Full (≧90%),[6]; 1 μm,41
same,Down-regulated genes in category High (66.7-90%),[6]; 1 μm,70
same,Down-regulated genes in category Low (0-33.3%),[6]; 1 μm,418
same,Down-regulated genes in category Middle (33.3-66.7%),[6]; 1 μm,266
same,"Effect on up-regulation of RGS2, Sult1a1, IL6R and SGK by a GR agonist","[8]; CA77 cells, co-administered with dexamethasone",reversal of this effect
same,Effect on dexamethasone-induced Sult1a1 upregulation in the hippocampus,[9],reversal of this effect
same,Emax at 1 µM,"[4]; COS, read-out: Transrepression, COS % Emax, 1 uM",40%
same,Effect on the glucocorticoid receptor (degree of agonist activity),[7],low partial agonist activity
C[C@]12CCC(=O)C=C1CC[C@@H]1[C@@H]2[C@@H](O)C[C@]2(C=O)[C@@H](C(=O)CO)CC[C@@H]12 [aldosterone],Activity in the GR agonist signature at 6 hours,[10]; 6 hours,little or no activity
same,Presence of the GR agonist signature,[10]; response at 24 hours,weakly present
C[C@]12C[C@H](O)[C@H]3[C@@H](CCC4=CC(=O)CC[C@@]43C)[C@@H]1CC[C@@H]2C(=O)CO [corticosterone],EC50,"[8]; Rattus norvegicus, CA77 cell assay",250 nM
O=C(CCCN1CCC(O)(c2ccc(Cl)cc2)CC1)c1ccc(F)cc1 [haloperidol],RGS2 mRNA,[11],up-regulated
same,RGS4 mRNA levels,[11],down-regulation
